From PMC11110727, “Exploiting thiol-functionalized benzosiloxaboroles for achieving diverse substitution patterns – synthesis, characterization and biological evaluation of promising antibacterial agents” (RSC Medicinal Chemistry, 2024)

Molecular target: T1, S. aureus MRSA LeuRS (Staphylococcus aureus, UniProt P67513)
T1 construct: The LeuRS gene from MRSA (PW-71) was amplified by PCR; made in house; host or cells: E. coli BL21(DE3)pLys
Assay: In vitro aminoacylation (enzyme inhibition) assay
Type: biochemical
Protocol: We have undertaken research devoted to determining the most probable mechanism of antibacterial action. […] Considering structural similarity to benzoxaboroles we assumed that benzosiloxaboroles are active through this mechanism. Our working hypothesis was supported by the fact that benzosiloxaboroles are rather bacteriostatic than bactericidal,[26,27] which is consistent with the specificity of the OBORT mechanism. The enzyme inhibition assay was performed for compound 20 as it features high activity against S. aureus MRSA strains and the respective favorable SI = 19.5 (Table 5). […] We obtained S. aureus MRSA LeuRS in the E. coli expression system. From 400 mL culture, approximately 20 mg of 6× His tagged LeuRS (with a molecular mass of 92.3 kDa) was purified to more than 90% homogeneity, which was confirmed by sodium dodecylsulfate-polyacrylamide gel electrophoresis (SDS-PAGE; Fig. S2, ESI ^†). Next, we used an in vitro aminoacylation assay to investigate the ability of 20 to inhibit S. aureus MRSA LeuRS activity consistent with affecting the transfer of the ^14C-radiolabeled leucine to a total tRNA. […] (residual activity 30.8% at 25 μM).
The LeuRS gene from MRSA (PW-71) was amplified by PCR using the following primers: 5′-[…]-3′ and 5′-[…]-3′. The amplified leuRS was digested with BamHI and NotI and ligated into pETDuet-1 vector (Novagen) which carries an N-terminal His tag. After sequencing, the pETDuet1-leuRS plasmid was transformed into E. coli BL21(DE3)pLys cells, which were then grown overnight in 20 mL of Luria–Bertani (LB) medium containing 100 μg mL^−1 ampicillin and 30 μg mL^−1 chloramphenicol. Then the overnight culture was inoculated into 400 mL of Super Broth medium containing ampicillin and chloramphenicol at the same concentration, and the cells were grown until the OD600 reached 0.6. […] The protein concentration in the final solution was 2.86 mg mL^−1 (determined by the Bradford method and bovine serum albumin as a standard).[78] […]

T1 sequence (P67513 whole entry): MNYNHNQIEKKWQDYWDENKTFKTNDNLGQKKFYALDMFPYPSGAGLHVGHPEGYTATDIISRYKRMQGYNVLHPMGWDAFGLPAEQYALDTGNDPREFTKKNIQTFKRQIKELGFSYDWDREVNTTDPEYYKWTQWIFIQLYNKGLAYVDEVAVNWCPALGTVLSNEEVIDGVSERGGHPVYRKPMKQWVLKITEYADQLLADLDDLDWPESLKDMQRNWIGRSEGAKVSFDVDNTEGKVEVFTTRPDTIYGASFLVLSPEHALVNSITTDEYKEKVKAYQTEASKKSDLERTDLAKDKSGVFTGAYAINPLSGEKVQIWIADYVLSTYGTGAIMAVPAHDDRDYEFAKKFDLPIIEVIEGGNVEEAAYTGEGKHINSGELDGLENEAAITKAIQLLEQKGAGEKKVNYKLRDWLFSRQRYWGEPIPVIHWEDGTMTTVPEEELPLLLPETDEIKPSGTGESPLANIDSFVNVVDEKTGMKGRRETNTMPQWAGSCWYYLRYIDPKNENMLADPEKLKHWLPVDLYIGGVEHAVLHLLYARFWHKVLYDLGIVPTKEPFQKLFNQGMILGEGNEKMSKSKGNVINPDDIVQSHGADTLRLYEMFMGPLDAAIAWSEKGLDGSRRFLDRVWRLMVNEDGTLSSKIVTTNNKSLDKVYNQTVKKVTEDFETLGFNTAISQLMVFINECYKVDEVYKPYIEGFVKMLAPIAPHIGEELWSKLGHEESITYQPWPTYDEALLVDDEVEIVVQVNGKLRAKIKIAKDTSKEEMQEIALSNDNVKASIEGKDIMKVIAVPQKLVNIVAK

C[Si]1(C)OB(O)c2cc(F)c(SCCS(=O)(=O)c3ccccc3)c(F)c21 [Compound 20, 5,7-Difluoro-1,1-dimethyl-6-((2-(phenylsulfonyl)ethyl)thio)benzo[c][1,2,5]oxasilaborol-3(1H)-ol]
IC50: > 200 µM | remaining activity at 25 µM (read-out: residual activity of S. aureus MRSA LeuRS): 92.9%
